Assay results: patent publication US7691869B2, “Pyrrolotriazolopyrimidine derivatives, pharmaceutical compositions containing them and methods of treating conditions and diseases mediated by the adenosine A2A receptor activity” (King Pharmaceuticals Research and Development, Inc., priority 2008, dated 2010)

Legend:
[1] = biological target: T1, human adenosine A2A receptor (Homo sapiens, UniProt P29274); assay: Human cloned A2A adenosine receptor binding assay ([3H]ZM241385 displacement, CHO membranes); details: [3H]ZM241385, CHO cells transfected with human recombinant A2A receptors
T1 construct: expressed in transfected cells; host or cells: CHO cells (membrane preparation)
T1 sequence (P29274 whole entry): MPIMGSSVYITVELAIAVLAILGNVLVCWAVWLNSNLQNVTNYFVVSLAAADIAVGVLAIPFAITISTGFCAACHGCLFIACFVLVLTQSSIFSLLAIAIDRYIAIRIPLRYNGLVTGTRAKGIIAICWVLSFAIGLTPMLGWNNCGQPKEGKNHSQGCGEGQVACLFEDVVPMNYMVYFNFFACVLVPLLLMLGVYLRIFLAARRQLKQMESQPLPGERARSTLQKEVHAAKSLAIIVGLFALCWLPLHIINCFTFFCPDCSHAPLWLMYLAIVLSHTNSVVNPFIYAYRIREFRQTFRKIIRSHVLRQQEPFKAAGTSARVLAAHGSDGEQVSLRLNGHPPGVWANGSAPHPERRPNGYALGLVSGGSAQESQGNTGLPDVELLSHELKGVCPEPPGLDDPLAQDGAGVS
Protocol: CHO Membranes Preparation
The human adenosine receptors have been transfected in CHO cells according with the method previously described by Klotz et al. (Naunyn-Schmied. Arch Pharm. 1998, 357: 1-9). Briefly, the cells are grown adherently and maintained in Dulbecco's Modified Eagles Medium with nutrient mixture F12 (DMEM/F12) without nucleosides, containing 10% fetal calf serum, penicillin (100 U/mL), streptomycin (100 μg/mL), L-glutamine (2 mM) and Geneticin (G418, 0.2 mg/ml) at 37° C. in 5% CO2/95% air. For membrane preparation the culture medium is removed and the cells are ished with phosphate-buffered saline and scraped off T75 flasks in ice-cold hypo tonic buffer (5 mM Tris HCl, 1 mM EDTA, pH 7.4). The cell suspension is homogenized with Polytron, the homogenate is spun for 10 min at 1000×g and the supernatant is then centrifuged for 30 min at 100,000×g. […]
All new synthesized compounds have been tested to evaluate their affinity to human A1, A2A, A2B and A3 adenosine receptors. […] Non-specific binding is determined in the presence of 10 μM of CHA and this is always ≦10% of the total binding. […] Non-specific binding is determined in the presence of 1 μM ZM 241385 and is about 20% of total binding. […] Bound and free radioactivity are separated by filtering the assay mixture through Whatman GF/B glass fiber filters using a Micro-Mate 196 cell harvester (Packard Instrument Co.). The filter bound radioactivity is counted on a Top Count (efficiency 57%) with Micro-Scint 20.
The protein concentration is determined according to a Bio-Rad method (Bradford, Anal Biochem. 1976, 72: 248-254) with bovine albumin as a standard reference. Inhibitory binding constant, Ki, values are calculated from those of IC50 according to Cheng & Prusoff equation (Biochem. Pharmacol. 1973, 22: 3099-3108): Ki=IC50/(1+[C*]/KD*) where [C*] is the concentration of the radioligand and KD* its dissociation constant. […] Data are expressed as geometric mean with 95% confidence limits in parentheses.

[2] = system: 6-OHDA lesion rats; assay: 6-OHDA lesion of the middle forebrain bundle in rats, Protocol B (apomorphine-induced rotation); assay type: in vivo, rat; details: 30 mg/kg single i.p. dose; threshold dose of apomorphine 0.02 mg/kg i.p.; significant increase, p≦0.05; FIG. 1
Protocol: Adult male Sprague-Dowley rats (Harlan UK ltd., Bicester, Oxon, UK), weighing 255±15 g, are used in all experiments. The rats are housed in groups of up to 5 per cage, and the animals are fed an expanded rodent diet of RM1(E) SQC (Special Diets Services, Witham, UK) ab libitum, and allowed free access to water, under controlled temperature and 12 hour light-dark cycle.
The test compounds are formulated for dosing by initially wet grinding a known amount in approximately 10% of the final volume of vehicle, i.e., propylene glycol/polyethylene glycol (PEG400)/glucose (D5W)-15/15/70 v %, in a mortal and pestle. Once suitably wetted, approximately 30% of the remaining vehicle is added, stirred for up to 10 min, and then sonicated for approximately 5 min. This step is repeated twice, using remaining vehicle to provide even suspensions of 0.6, 2 and 6 mg/mL. No correction factor is applied. All test substance formulations are clear to light tan colored suspensions, stored at RT and protected from light until dosing. The dose volume for the test compounds is 5 mL/kg to provide dosages of 3, 10 and 30 mg/kg, respectively.
Apomorphine hydrochloride (HCl) hemihydrate (Sigma, UK) is formulated for dosing by dissolving a known amount in 0.9% w/v sodium chloride (Baxter Healthcare Ltd., UK) to produce a clear, colorless solution of 0.02 mg/mL. […]

Ki [1] [nM]	Structure (SMILES)	number of contralateral rotations [2]
~1	Nc1nc2c(ccn2CCN2CCN(C(=O)c3ccc(F)cc3F)CC2)c2nc(-c3ccco3)nn12 [Example 4, (4-(2-(5-Amino-2-(furan-2-yl)-7H-pyrrolo[3,2-e][1,2,4]triazolo[1,5-c]pyrimidin-7-yl)ethyl)piperazin-1-yl)(2,4-difluorophenyl)methanone]	–
~28	CN(CCN(C)c1ccc(F)cc1F)CCn1ccc2c1nc(N)n1nc(-c3ccco3)nc21 [Example 29, N^1-(2-(5-Amino-2-(furan-2-yl)-7H-pyrrolo[3,2-e][1,2,4]triazolo[1,5-c]pyrimidin-7-yl)ethyl)-N^2-(2,4-difluorophenyl)-N^1,N^2-dimethylethane-1,2-diamine]	–
~5	Nc1nc2c(ccn2CCN2CCN(c3ccc(F)cc3F)CC2)c2nc(-c3ccco3)nn12 [Example 30, 7-(2-(4-(2,4-Difluorophenyl)piperazin-1-yl)ethyl)-2-(furan-2-yl)-7H-pyrrolo[3,2-e][1,2,4]triazolo[1,5-c]pyrimidin-5-amine]	228±38
